Measured values from patent US12370161B2, “Composition for treating atopy or pruritus comprising N-acetyl or N-acyl amino acid” (STEMDR INC., priority 2017, dated 2025).

System: atopic dermatitis-induced Balb/c mouse
Assay: SCORAD clinical skin score, DNFB-induced atopic dermatitis in Balb/c mouse
Assay type: in vivo
Design: key to Mouse 1 Sum / Mean (of Sum, SCORAD) / Mouse 2 Sum / Mouse 3 Sum: sum of symptom grades, each 0 (none) to 3 (severe)
Conditions: DNFB Balb/c; for Mouse 1 Erythema: 0.1% in PBS, 200 μL on back skin daily day 22-28, grade 0-3 (0 no symptom, 1 mild, 2 moderate, 3 severe); for Mouse 1 Abrasion / Mouse 1 Dryness / Mouse 1 Edema / Mouse 1 Eschar / Mouse 1 Lichenification / Mouse 1 Sum / Mouse 2 Abrasion / Mouse 2 Dryness / Mouse 2 Edema / Mouse 2 Erythema / Mouse 2 Eschar / Mouse 2 Lichenification / Mouse 2 Sum / Mouse 3 Abrasion / Mouse 3 Dryness / Mouse 3 Edema / Mouse 3 Erythema / Mouse 3 Eschar / Mouse 3 Lichenification / Mouse 3 Sum / Mean (of Sum, SCORAD): 0.1% topical day 22-28; for Mouse 1 Abrasion / Mouse 1 Dryness / Mouse 1 Edema / Mouse 1 Eschar / Mouse 1 Lichenification / Mouse 2 Abrasion / Mouse 2 Dryness / Mouse 2 Edema / Mouse 2 Erythema / Mouse 2 Eschar / Mouse 2 Lichenification / Mouse 3 Abrasion / Mouse 3 Dryness / Mouse 3 Edema / Mouse 3 Erythema / Mouse 3 Eschar / Mouse 3 Lichenification: grade 0-3; for Mouse 1 Sum / Mouse 2 Sum / Mouse 3 Sum: overall dermatitis score, sum of individual scores; for Mean (of Sum, SCORAD): mean of 3 mice
Procedure: In order to induce atopy-like dermatitis in Balb/c mice, DNFB sensitization was induced by applying 100 μL of 0.35% 2,4-dinitrofluorobenzene (DNFB) (Sigma, USA) in acetone/olive oil (3:1) on the shaved back skin of the mice. Then, dermatitis was induced by applying 100 μL of 0.25% DNFB on days 6, 9, 12, 15, 18 21, 24 and 27 on the shaved back skin. Control mice were treated with a vehicle of the same volume (FIG. 1A).
After dissolving an N-acetyl or N-acylamino acid in phosphate-buffered saline to 0.1%, 200 μL of the solution was applied on the back skin of the mice every day, from day 22 until day 28 for the Balb/c atopic dermatitis model, and from day 15 until day 21 for the Nc/Nga atopic dermatitis model. When the N-acetyl or N-acylamino acid was treated together with DNFB, they were treated with 12-hour intervals in order to avoid direct reaction between the DNFB and the N-acetyl or N-acylamino acid. A non-treated group and a 2,4-dinitrofluorobenzene (DNFB) group were treated with phosphate-buffered saline of the same volume (FIGS. 1A-1B). As the N-acetylamino acid, products purchased from Sigma-Aldrich (USA), MP scientific (USA), TCI (Tokyo Chemical Industry, Japan), Santacruz (USA), etc. were used without purification.
The degree of skin soothing and the severity of atopic dermatitis were evaluated macroscopically according to the previously established SCORAD (SCORing Atopic Dermatitis) method (Oranje et al., 2007). The degree of symptoms such as edema, erythema, eschar, dryness, abrasion, lichenification, etc. was graded from 0 to 3 (0, no symptom; 1, mild; 2, moderate; 3, severe). The overall dermatitis score was determined from the sum of all individual scores (Table 1). The assessment was performed by an investigator who was blind to the grouping of the mice.

Compound	Mouse 1 Erythema	Mouse 1 Abrasion	Mouse 1 Dryness	Mouse 1 Edema	Mouse 1 Eschar	Mouse 1 Lichenification	Mouse 1 Sum	Mouse 2 Abrasion	Mouse 2 Dryness	Mouse 2 Edema	Mouse 2 Erythema	Mouse 2 Eschar	Mouse 2 Lichenification	Mouse 2 Sum	Mouse 3 Abrasion	Mouse 3 Dryness	Mouse 3 Edema	Mouse 3 Erythema	Mouse 3 Eschar	Mouse 3 Lichenification	also measured
CC(=O)N[C@@H](Cc1ccc(O)cc1)C(=O)O [N-acetyl-L-tyrosme]	3	2	3	2	3	2	15	2	3	2	3	2	3	15	2	2	2	3	2	2	Mouse 3 Sum: 13; Mean (of Sum, SCORAD): 14.33
CC(=O)N[C@H](C(=O)O)C(C)C [N-acetyl-L-valine]	3	2	2	2	2	3	14	2	2	2	2	2	3	13	1	3	2	2	2	2	Mouse 3 Sum: 12; Mean (of Sum, SCORAD): 13
CC(=O)N[C@@H](Cc1c[nH]cn1)C(=O)O [N-acetyl-L-histidine]	3	2	3	2	2	3	15	2	3	2	3	2	3	15	2	3	2	3	2	2	Mouse 3 Sum: 14; Mean (of Sum, SCORAD): 14.67
CC[C@H](C)[C@H](NC(C)=O)C(=O)O [N-acetyl-L-isoleucine]	3	1	3	2	3	3	15	2	3	2	2	2	3	14	1	3	2	3	2	3	Mouse 3 Sum: 14; Mean (of Sum, SCORAD): 14.33
CC(=O)N[C@@H](CCC(=O)O)C(=O)O [N-acetyl-L-glutamic acid]	3	2	2	2	2	3	14	2	3	2	2	2	2	13	2	3	2	1	2	2	Mouse 3 Sum: 12; Mean (of Sum, SCORAD): 13
CC(=O)N[C@@H](Cc1ccccc1)C(=O)O [N-acetyl-L-phenylalanme]	3	2	3	2	1	2	13	2	3	2	3	2	3	15	1	3	2	3	2	3	Mouse 3 Sum: 14; Mean (of Sum, SCORAD): 14
CSCC[C@H](NC(C)=O)C(=O)O [N-acetyl-L-methionine]	2	2	3	2	2	3	14	2	3	2	3	3	3	16	2	3	2	2	2	3	Mouse 3 Sum: 14; Mean (of Sum, SCORAD): 14.67
CC(=O)N[C@@H](CCCCN)C(=O)O [N-acetyl-L-Lysine]	3	2	3	2	2	1	13	2	2	3	3	2	3	15	2	3	2	3	2	2	Mouse 3 Sum: 14; Mean (of Sum, SCORAD): 14
CC(=O)NCC(=O)O [N-acetyl-L-glycine]	3	2	2	2	2	3	14	2	3	2	3	2	3	15	2	3	2	3	2	3	Mouse 3 Sum: 15; Mean (of Sum, SCORAD): 14.67
